This passage reports growth inhibition rate, control value and inhibition results from US20240268388A1, “AGRICULTURAL AND HORTICULTURAL FUNGICIDAL COMPOSITION” (NIPPON SODA CO., LTD., priority 2021, published 2024).

Assay [1] relates to wheat leaf blight pathogen (Septoria tritici). The assay is described as follows: Fungicidal test for wheat leaf blight (microplate, turbidity at 405 nm). It is filed as cell-based. Particulars: component (II) alone. How it is done:
Compounds of component (I) and component (II) were dissolved in dimethyl sulfoxide at 10,000 ppm and diluted with water to the prescribed concentration to prepare a chemical agent solution. A mixture of the prescribed concentration of the chemical agent solution, wheat leaf blight pathogen (Septoria tritici) conidia, and malt extract was prepared on a microplate and incubated at 20° C. in the dark for 3 days. The turbidity at a wavelength of 405 nm was measured with a microplate reader, and the growth of wheat leaf blight pathogen was compared with that of no treatment control to determine the growth inhibition rate. The results are shown in Tables 2 to 7, along with the expected values calculated as below.
Each expected value was calculated from the fungicidal efficacy of a single application of the compound of component (I) and the fungicidal efficacy of a single application of compound of component (II) by using Colby's equation (S. R. Colby, Calculating synergistic and antagonistic responses of herbicide combinations, Weeds, 15, 20-22 pp (1967)).
[formula] • where E represents the expected value of the growth inhibition rate (%) for the composition containing component (I) and component (II), M represents the growth inhibition rate (%) when the component (I) is used alone, and N represents the growth inhibition rate (%) when the component (II) is used alone. When the measured growth inhibition rate (%) for the composition containing component (I) and component (II) is greater than the expected value E, the composition containing components (I) and component (II) should exert a synergistic effect.

For assay [2], the system named is cucumber anthracnose pathogen (Colletotrichum lagenarium). Description: Fungicidal test for cucumber anthracnose (microplate, turbidity at 405 nm). It is filed as cell-based. How it is done: The compounds were dissolved in dimethyl sulfoxide to prepare a chemical agent solution.
A mixture of the prescribed concentration of the chemical agent solution, cucumber anthracnose pathogen (Colletotrichum lagenarium) conidia, and Vogel medium was prepared on a microplate and incubated at 20° C. in the dark for 7 days.
Each expected value was calculated using Colby's equation:
[formula] • where E represents the expected value of the growth inhibition rate (%), M represents the growth inhibition rate (%) when the component (I) is used alone, and N represents the growth inhibition rate (%) when the component (II) is used alone.

The test system of assay [3] is soybean rust pathogen (Phakopsora pachyrhizi). The assay is described as follows: Soybean rust control test (leaf discs). It is filed as in vivo. How it is done: Compounds of component (I) and component (II) were dissolved in dimethyl sulfoxide and diluted with water to the prescribed concentration to prepare a chemical agent solution. A mixture of the prescribed concentration of the chemical agent solution and sterile water was prepared on a microplate, and leaf discs cut from soybean leaves were floated on the microplate. Uredospores of soybean rust pathogen (Phakopsora pachyrhizi) were inoculated and incubated at 25° C. for 9 days. The area percentage of lesions was determined by observing uredospore-forming lesions on the leaf discs, and the control value was calculated. The control value was calculated by the following formula:
Control value (%)=100−{Area percentage of lesions in treatment plot/Area percentage of lesions in untreatment plot}×100.
The results are shown in Tables 8 to 18, along with the expected values calculated as below. Each expected values was calculated from the fungicidal efficacy of a single application of compound of component (I) and the fungicidal efficacy of a single application of compound of component (II) by using Colby's equation:
[formula] • where E represents the expected value of the control value for the composition containing component (I) and component (II), M represents the control value (%) when the component (I) is used alone, and N represents the control value (%) when the component (II) is used alone. When the measured control value for the composition containing component (I) and component (II) is greater than the expected value E, the composition containing component (I) and composition (II) should exert a synergistic effect.

Setting [4] is: Table 15, component (II) alone (component (I): None): Azoxystrobin 0.0001, Inpyrfluxam 0.000025, Chlorothalonil 0.0063, Difenoconazole 0.000025, Cyproconazole 0.000025, Tebuconazole 0.000025, Trifloxystrobin 0.0001, Pyraclostrobin 0.0001, Fluazinam 0.0063, Fluxapyroxad 0.000025, Prothioconazole 0.000025, Florylpicoxamid 0.0001, Benzovindiflupyr 0.000025, Mancozeb 0.0063 ppm.
Where [5] appears, read: Table 18, component (II) alone (component (I): None): Azoxystrobin 0.0001, Inpyrfluxam 0.000025, Chlorothalonil 0.0063, Difenoconazole 0.000025, Cyproconazole 0.000025, Tebuconazole 0.000025, Trifloxystrobin 0.0001, Pyraclostrobin 0.0001, Fluazinam 0.0063, Fluxapyroxad 0.000025, Prothioconazole 0.000025, Florylpicoxamid 0.0001, Benzovindiflupyr 0.000025, Mancozeb 0.0063 ppm.

The mark [6] stands for this setting: Zymoseptoria tritici, 0.25 ppm, read-out: growth inhibition rate.
Where [7] appears, read: Zymoseptoria tritici, 1 ppm, read-out: growth inhibition rate.
Where [8] appears, read: Zymoseptoria tritici, 0.02 ppm, read-out: growth inhibition rate.
Setting [9] is: Table 14, component (II) alone (component (I): None): Inpyrfluxam 0.00025, Chlorothalonil 0.006, Thiophanate-methyl 0.0001, Tebuconazole 0.000025, Trifloxystrobin 0.0001, Fluazinam 0.006, Prothioconazole 0.000025, Florylpicoxamid 0.0001, Metominostrobin 0.0004 ppm.
The mark [10] stands for this setting: Table 16, component (II) alone (component (I): None): Inpyrfluxam 0.000025, Chlorothalonil 0.006, Thiophanate-methyl 0.0001, Tebuconazole 0.000025, Trifloxystrobin 0.0001, Fluazinam 0.006, Prothioconazole 0.000025, Florylpicoxamid 0.0001, Metominostrobin 0.0004 ppm.
Setting [11] is: Table 17, component (II) alone (component (I): None): Inpyrfluxam 0.000026, Chlorothalonil 0.02, Thiophanate-methyl 0.0004, Tebuconazole 0.0001, Trifloxystrobin 0.0001, Fluazinam 0.006, Prothioconazole 0.000025, Florylpicoxamid 0.0001, Metominostrobin 0.0004 ppm.

Turning to `Cc1nc2c(F)c(F)ccc2cc1Oc1cccc(F)c1C(C)(C)O` [Ipflufenoquin, ipflufenoquin, reference compound], the growth inhibition rate in assay [1] (0.06 ppm) was determined as 6%; in assay [1] (0.25 ppm), 6%; in assay [1] (1 ppm), 22%; in assay [2] (Table 19, component (II) alone (component (I): None): Ipflufenoquin 0.000026, Iminoctadine trialbesilate 0.0032, Cyflufenamid 10, Cyprodinil 0.00013, Potassium bicarbonate 0.08, Thiophanate-methyl 0.08, Picarbutrazox 0.016, Fludioxonil 0.0032, Florylpicoxamid 0.0032, Metyltetraprole 0.08, Mefentrifluconazole 0.4 ppm), 0%; in assay [2] (Table 20, component (II) alone (component (I): None): Ipflufenoquin 0.00064, Iminoctadine trialbesilate 0.0032, Cyflufenamid 10, Cyprodinil 0.00013, Potassium bicarbonate 0.08, Thiophanate-methyl 0.4, Picarbutrazox 0.016, Fludioxonil 0.0032, Florylpicoxamid 0.0032, Metyltetraprole 0.08, Mefentrifluconazole 0.4 ppm), 47%; in assay [2] (Table 21, component (II) alone (component (I): None): Ipflufenoquin 0.00064, Iminoctadine trialbesilate 0.0032, Cyflufenamid 10, Cyprodinil 0.00013, Potassium bicarbonate 0.08, Thiophanate-methyl 0.4, Picarbutrazox 0.00064, Fludioxonil 0.0032, Florylpicoxamid 0.0032, Metyltetraprole 0.08, Mefentrifluconazole 0.4 ppm), 47%. The growth inhibition rate is listed as 47% in assay [2] (Table 22, component (II) alone (component (I): None): Ipflufenoquin 0.00064, Iminoctadine trialbesilate 0.0032, Cyflufenamid 10, Cyprodinil 0.00013, Potassium bicarbonate 0.08, Thiophanate-methyl 0.4, Picarbutrazox 0.00064, Fludioxonil 0.0032, Florylpicoxamid 0.0032, Metyltetraprole 0.08, Mefentrifluconazole 0.4 ppm); 47% in assay [2] (Table 23, component (II) alone (component (I): None): Ipflufenoquin 0.00064, Iminoctadine trialbesilate 0.0032, Cyflufenamid 10, Cyprodinil 0.000026, Potassium bicarbonate 0.08, Thiophanate-methyl 0.4, Picarbutrazox 0.00064, Fludioxonil 0.00064, Florylpicoxamid 0.0032, Metyltetraprole 0.08, Mefentrifluconazole 0.4 ppm); 47% in assay [2] (Table 24, component (II) alone (component (I): None): Ipflufenoquin 0.00064, Iminoctadine trialbesilate 0.0032, Cyflufenamid 10, Cyprodinil 0.00013, Potassium bicarbonate 0.08, Thiophanate-methyl 0.4, Picarbutrazox 0.00064, Fludioxonil 0.00013, Florylpicoxamid 0.0032, Metyltetraprole 0.08, Mefentrifluconazole 0.4 ppm).
For the compound `Cn1cc(C(=O)Nc2cccc3c2[C@@H]2CC[C@H]3C2=C(Cl)Cl)c(C(F)F)n1` (racemic) [Benzovindiflupyr, benzovindiflupyr, reference compound], the growth inhibition rate is given as 48% in assay [1] (0.01 ppm) and 65% in assay [1] (0.04 ppm). The control value in assay [3] (setting [4]) and in assay [3] (setting [5]) was 50% in each case.
In the case of `CC(C1CC1)C(O)(Cn1cncn1)c1ccc(Cl)cc1` (stereo not drawn) [Cyproconazole, cyproconazole, reference compound], the inhibition (in general, the drop in the measured response relative to a control, in per cent) at 0.25 ppm in assay [1] (setting [6]) was 15%. For the same compound, the inhibition at 1 ppm in assay [1] (setting [7]) was determined as 1%. The control value in assay [3] (setting [4]) turned out to be 33%; in assay [3] (setting [5]), 0%; in assay [3] (component (II) alone, 0.0001 ppm), 88%.
With `OC(Cc1ccccc1Cl)(Cn1nc[nH]c1=S)C1(Cl)CC1` (stereo not drawn) [Prothioconazole, prothioconazole, reference compound], the inhibition at 0.02 ppm in assay [1] (setting [8]) came out at 10%. In assay [1] (setting [6]), the inhibition at 0.25 ppm was found to be 7%. For the same compound, the inhibition at 1 ppm in assay [1] (setting [7]) amounted to 8%. Further, the control value in assay [3] (setting [9]) turned out to be 44%; in assay [3] (setting [4]), 33%; in assay [3] (setting [10]), 44%; in assay [3] (setting [11]), 44%; in assay [3] (setting [5]), 50%.
In the case of mancozeb, the values for the growth inhibition rate in assay [1] (0.004 ppm), in assay [1] (0.02 ppm) and in assay [1] (0.06 ppm) were 9%, 19% and 19%, respectively. Further, the control value in assay [3] (setting [4]) and in assay [3] (setting [5]) was 0% each time.
With `O=[N+]([O-])c1cc(C(F)(F)F)c(Cl)c([N+](=O)[O-])c1Nc1ncc(C(F)(F)F)cc1Cl` [Fluazinam, fluazinam, reference compound], in assay [1] (Zymoseptoria tritici, 0.004 ppm, read-out: growth inhibition rate), the inhibition at 0.004 ppm is 0%. Besides, the control value was 16% in assay [3] (setting [9]); 0% in assay [3] (setting [4]); 16% in assay [3] (setting [10]); 16% in assay [3] (setting [11]); 50% in assay [3] (setting [5]).
With `N#Cc1c(Cl)c(Cl)c(Cl)c(C#N)c1Cl` [Chlorothalonil, chlorothalonil, reference compound], the inhibition at 0.001 ppm in assay [1] (Zymoseptoria tritici, 0.001 ppm, read-out: growth inhibition rate) was determined as 8%. Further, the inhibition at 0.02 ppm in assay [1] (setting [8]) came to 2%. For the same compound, the inhibition at 0.04 ppm in assay [1] (Zymoseptoria tritici, 0.04 ppm, read-out: growth inhibition rate) stood at 9%. Further, the control value in assay [3] (setting [9]) is 44%; in assay [3] (setting [4]) it was 33%; in assay [3] (setting [10]), 44%; in assay [3] (setting [11]), 75%; in assay [3] (setting [5]), 0%.
As to `COC(=O)N(OC)c1ccccc1COc1ccn(-c2ccc(Cl)cc2)n1` [Pyraclostrobin, pyraclostrobin, reference compound], the inhibition at 0.02 ppm in assay [1] (setting [8]) was determined as 24%. Besides, the inhibition at 0.25 ppm in assay [1] (setting [6]) stood at 86%. For the same compound, the results for the control value in assay [3] (setting [4]) and in assay [3] (setting [5]) were 33% and 0%, respectively.
Turning to `CC(C)(C)C(O)(CCc1ccc(Cl)cc1)Cn1cncn1` (stereo not drawn) [Tebuconazole, tebuconazole, reference compound], the inhibition at 0.016 ppm in assay [1] (Zymoseptoria tritici, 0.016 ppm, read-out: growth inhibition rate) stood at 0%. The inhibition at 0.063 ppm in assay [1] (Zymoseptoria tritici, 0.063 ppm, read-out: growth inhibition rate) was 33%. Also, in assay [1] (Zymoseptoria tritici, 64 ppm, read-out: growth inhibition rate), the inhibition at 64 ppm amounted to 76%. The control value is 44% in assay [3] (setting [9]); 33% in assay [3] (setting [4]); 44% in assay [3] (setting [10]); 86% in assay [3] (setting [11]); 33% in assay [3] (setting [5]).
